Laboratory results reported in patent US20100016547A1, “Glycosilated Peptide and Medicine Comprising It as an Effective Ingredient” (priority 2005, published 2010).
Peptide text beside a SMILES is read from it. * marks the point of attachment. X2 = CC(=O)N[C@@H]1[C@@H](O)[C@H](O[C@@H]2O[C@H](CO[C@]3(C(=O)O)C[C@H](O)[C@@H](NC(C)=O)[C@H]([C@H](O)[C@H](O)CO)O3)[C@H](O)[C@H](O)[C@H]2O)[C@@H](CO)O[C@H]1N*; X1 = CC(=O)N[C@@H]1[C@@H](O)[C@H](O[C@@H]2O[C@H](CO)[C@H](O)[C@H](O)[C@H]2O)[C@@H](CO)O[C@H]1N*

What was measured:
[1] = target: T1, GLP-1 receptor (Homo sapiens, UniProt P43220)
Protocol: After being incubated at room temperature for 2 hours, the solution was filtered through a unifilter 96GF/C plate (Perkin-Elmer) pretreated with 1% polyethylenimine containing 0.5% BSA, washed with 25 mM HEPES buffer solution (pH 7.4) containing 0.5% BSA, and radioactivity remained on the filter was measured by a gamma counter (Top Counter; Perkin-Elmer).

[2] = target: T1, GLP-1 receptor; experiment: Assay for production of cAMP
Protocol: Assay for Production of cAMP
After stirring at room temperature for an hour, the cells were lysed with Triton X-100 (final concentration: 1%).
Quantity of cAMP was determined using cAMP Femtomolar Kit (CIS Bio International). The reaction solution (1 μL) was moved to a new 384-well plate and diluted by adding 9 μL of dilution buffer. Next, each 5 μL of cAMP-XL665 solution and anti-cAMP cryptate solution of the Kit was added, the mixture was incubated at room temperature for an hour, and time-resolved fluorescence was measured using RUBYstar (BMG LABTECH).

T1 sequence (P43220 24-463, species assumed): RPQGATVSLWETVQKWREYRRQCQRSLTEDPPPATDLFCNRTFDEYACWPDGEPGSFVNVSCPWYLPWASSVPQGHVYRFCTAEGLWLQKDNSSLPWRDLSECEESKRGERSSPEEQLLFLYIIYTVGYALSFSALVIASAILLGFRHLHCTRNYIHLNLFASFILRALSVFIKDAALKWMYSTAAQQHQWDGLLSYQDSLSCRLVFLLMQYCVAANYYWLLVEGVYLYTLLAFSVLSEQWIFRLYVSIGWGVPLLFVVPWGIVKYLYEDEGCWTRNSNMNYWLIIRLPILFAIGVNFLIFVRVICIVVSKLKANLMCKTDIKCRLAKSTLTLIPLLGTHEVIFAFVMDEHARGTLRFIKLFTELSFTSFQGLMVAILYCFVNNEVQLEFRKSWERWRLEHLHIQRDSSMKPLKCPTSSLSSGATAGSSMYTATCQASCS

CC[C@H](C)[C@H](NC(=O)[C@H](Cc1ccccc1)NC(=O)[C@H](CCC(=O)O)NC(=O)[C@H](CCCCN)NC(=O)[C@H](C)NC(=O)[C@H](C)NC(=O)[C@H](CCC(N)=O)NC(=O)CNC(=O)[C@H](CCC(=O)O)NC(=O)[C@H](CC(C)C)NC(=O)[C@H](CC(=O)N[C@@H]1O[C@H](CO)[C@@H](O[C@@H]2O[C@H](CO)[C@H](O)[C@H](O)[C@H]2O)[C@H](O)[C@H]1NC(C)=O)NC(=O)[C@H](CO)NC(=O)[C@H](CO)NC(=O)[C@@H](NC(=O)[C@H](CC(=O)O)NC(=O)[C@H](CO)NC(=O)[C@@H](NC(=O)[C@H](Cc1ccccc1)NC(=O)[C@@H](NC(=O)CNC(=O)[C@H](CCC(=O)O)NC(=O)[C@H](C)NC(=O)[C@@H](N)Cc1c[nH]cn1)[C@@H](C)O)[C@@H](C)O)C(C)C)C(=O)N[C@@H](C)C(=O)N[C@@H](Cc1c[nH]c2ccccc12)C(=O)N[C@@H](CC(C)C)C(=O)N[C@H](C(=O)N[C@@H](CCCCN)C(=O)NCC(=O)N[C@@H](CCCNC(=N)N)C(N)=O)C(C)C [GL19NL] (H-HAEGTFTSDVSSD(X1)LEGQAAKEFIAWLVKGR-NH2; N-terminus assumed)
IC50 [1]: 38 nM | EC50 [2]: 8.3 nM

CC[C@H](C)[C@H](NC(=O)[C@H](Cc1ccccc1)NC(=O)[C@H](CCC(=O)O)NC(=O)[C@H](CCCCN)NC(=O)[C@H](C)NC(=O)[C@H](C)NC(=O)[C@H](CCC(N)=O)NC(=O)CNC(=O)[C@H](CCC(=O)O)NC(=O)[C@H](CC(C)C)NC(=O)[C@H](CC(=O)N[C@@H]1O[C@H](CO)[C@@H](O[C@@H]2O[C@H](CO[C@]3(C(=O)O)C[C@H](O)[C@@H](NC(C)=O)[C@H]([C@H](O)[C@H](O)CO)O3)[C@H](O)[C@H](O)[C@H]2O)[C@H](O)[C@H]1NC(C)=O)NC(=O)[C@H](CO)NC(=O)[C@H](CO)NC(=O)[C@@H](NC(=O)[C@H](CC(=O)O)NC(=O)[C@H](CO)NC(=O)[C@@H](NC(=O)[C@H](Cc1ccccc1)NC(=O)[C@@H](NC(=O)CNC(=O)[C@H](CCC(=O)O)NC(=O)[C@H](C)NC(=O)[C@@H](N)Cc1c[nH]cn1)[C@@H](C)O)[C@@H](C)O)C(C)C)C(=O)N[C@@H](C)C(=O)N[C@@H](Cc1c[nH]c2ccccc12)C(=O)N[C@@H](CC(C)C)C(=O)N[C@H](C(=O)N[C@@H](CCCCN)C(=O)NCC(=O)N[C@@H](CCCNC(=N)N)C(N)=O)C(C)C [GL19NS6] (H-HAEGTFTSDVSSD(X2)LEGQAAKEFIAWLVKGR-NH2)
IC50 [1]: > 100 nM | EC50 [2]: 50 nM

CC[C@H](C)[C@H](NC(=O)[C@H](Cc1ccccc1)NC(=O)[C@H](CCC(=O)O)NC(=O)[C@H](CC(=O)N[C@@H]1O[C@H](CO)[C@@H](O[C@@H]2O[C@H](CO)[C@@H](O[C@@H]3O[C@H](CO[C@H]4O[C@H](CO)[C@@H](O)[C@H](O)[C@@H]4O[C@@H]4O[C@H](CO)[C@@H](O[C@@H]5O[C@H](CO[C@]6(C(=O)O)C[C@H](O)[C@@H](NC(C)=O)[C@H]([C@H](O)[C@H](O)CO)O6)[C@H](O)[C@H](O)[C@H]5O)[C@H](O)[C@H]4NC(C)=O)[C@@H](O)[C@H](O[C@H]4O[C@H](CO)[C@@H](O)[C@H](O)[C@@H]4O[C@@H]4O[C@H](CO)[C@@H](O[C@@H]5O[C@H](CO[C@]6(C(=O)O)C[C@H](O)[C@@H](NC(C)=O)[C@H]([C@H](O)[C@H](O)CO)O6)[C@H](O)[C@H](O)[C@H]5O)[C@H](O)[C@H]4NC(C)=O)[C@@H]3O)[C@H](O)[C@H]2NC(C)=O)[C@H](O)[C@H]1NC(C)=O)NC(=O)[C@H](C)NC(=O)[C@H](C)NC(=O)[C@H](CCC(N)=O)NC(=O)CNC(=O)[C@H](CCC(=O)O)NC(=O)[C@H](CC(C)C)NC(=O)[C@H](Cc1ccc(O)cc1)NC(=O)[C@H](CO)NC(=O)[C@H](CO)NC(=O)[C@@H](NC(=O)[C@H](CC(=O)O)NC(=O)[C@H](CO)NC(=O)[C@@H](NC(=O)[C@H](Cc1ccccc1)NC(=O)[C@@H](NC(=O)CNC(=O)[C@H](CCC(=O)O)NC(=O)[C@H](C)NC(=O)[C@@H](N)Cc1c[nH]cn1)[C@@H](C)O)[C@@H](C)O)C(C)C)C(=O)N[C@@H](C)C(=O)N[C@@H](Cc1c[nH]c2ccccc12)C(=O)N[C@@H](CC(C)C)C(=O)N[C@H](C(=O)N[C@@H](CCCCN)C(=O)NCC(=O)N[C@@H](CCCNC(=N)N)C(N)=O)C(C)C [GL26NE1]
IC50 [1]: 11 nM | EC50 [2]: 0.8 nM

CC[C@H](C)[C@H](NC(=O)[C@H](Cc1ccccc1)NC(=O)[C@H](CCC(=O)O)NC(=O)[C@H](CC(=O)N[C@@H]1O[C@H](CO)[C@@H](O[C@@H]2O[C@H](CO)[C@H](O)[C@H](O)[C@H]2O)[C@H](O)[C@H]1NC(C)=O)NC(=O)[C@H](C)NC(=O)[C@H](C)NC(=O)[C@H](CCC(N)=O)NC(=O)CNC(=O)[C@H](CCC(=O)O)NC(=O)[C@H](CC(C)C)NC(=O)[C@H](Cc1ccc(O)cc1)NC(=O)[C@H](CO)NC(=O)[C@H](CO)NC(=O)[C@@H](NC(=O)[C@H](CC(=O)O)NC(=O)[C@H](CO)NC(=O)[C@@H](NC(=O)[C@H](Cc1ccccc1)NC(=O)[C@@H](NC(=O)CNC(=O)[C@H](CCC(=O)O)NC(=O)[C@H](C)NC(=O)[C@@H](N)Cc1c[nH]cn1)[C@@H](C)O)[C@@H](C)O)C(C)C)C(=O)N[C@@H](C)C(=O)N[C@@H](Cc1c[nH]c2ccccc12)C(=O)N[C@@H](CC(C)C)C(=O)N[C@H](C(=O)N[C@@H](CCCCN)C(=O)NCC(=O)N[C@@H](CCCNC(=N)N)C(N)=O)C(C)C [GL26NL]
IC50 [1]: 2 nM | EC50 [2]: 0.33 nM

CC[C@H](C)[C@H](NC(=O)[C@H](Cc1ccccc1)NC(=O)[C@H](CCC(=O)O)NC(=O)[C@H](CC(=O)N[C@@H]1O[C@H](CO)[C@@H](O[C@@H]2O[C@H](CO[C@]3(C(=O)O)C[C@H](O)[C@@H](NC(C)=O)[C@H]([C@H](O)[C@H](O)CO)O3)[C@H](O)[C@H](O)[C@H]2O)[C@H](O)[C@H]1NC(C)=O)NC(=O)[C@H](C)NC(=O)[C@H](C)NC(=O)[C@H](CCC(N)=O)NC(=O)CNC(=O)[C@H](CCC(=O)O)NC(=O)[C@H](CC(C)C)NC(=O)[C@H](Cc1ccc(O)cc1)NC(=O)[C@H](CO)NC(=O)[C@H](CO)NC(=O)[C@@H](NC(=O)[C@H](CC(=O)O)NC(=O)[C@H](CO)NC(=O)[C@@H](NC(=O)[C@H](Cc1ccccc1)NC(=O)[C@@H](NC(=O)CNC(=O)[C@H](CCC(=O)O)NC(=O)[C@H](C)NC(=O)[C@@H](N)Cc1c[nH]cn1)[C@@H](C)O)[C@@H](C)O)C(C)C)C(=O)N[C@@H](C)C(=O)N[C@@H](Cc1c[nH]c2ccccc12)C(=O)N[C@@H](CC(C)C)C(=O)N[C@H](C(=O)N[C@@H](CCCCN)C(=O)NCC(=O)N[C@@H](CCCNC(=N)N)C(N)=O)C(C)C [GL26NS6]
IC50 [1]: 2.9 nM | EC50 [2]: 0.92 nM
